Series [1] is described as follows: Compound induced cellular toxicity in HepG2 cells (ATPlite 1 Step). The class given is cell-based. The following applies: human, three days exposure, 50% reduction of total ATP levels relative to no drug controls. As to the method:
At day 3, post seeding cells are treated with ATPlite 1 Step according to the manufacturer's instructions.
(Cellular ATP, detected with luciferase, serves as a proxy for viable cell number.)

A further series has as its system hepatitis B virus (HBV). The series can be described thus: Reduction of viral product accumulation (HBV DNA qPCR, HBsAg or HBeAg ELISA) in 2.2.15 cells. Particulars: 120 h, day 5 post treatment, 50% reduction of viral product accumulation in cell lysates or supernatants relative to no drug controls, readout not specified. The format is cell-based. As to the method: 2.2.15 cells are passaged upon attaining confluency in DMEM/F12 media in the presence of 10% FBS, Penn/Strep, and 250 ug/mL G418. Novel compounds are 5 fold serially diluted in DMSO and added to 96 well plates containing 35,000 cells/well at a 1:200 dilution so that the final concentration of DMSO is 0.5%. On day 5, post treatment cell lysates and supernatants are harvested for analysis.
Cells are lysed using Agilent Sidestep Lysis buffer, diluted 1:100 and quantified via quantitative real time PCR. Commercially available ELISA kits are used to quantitate the viral proteins HBsAg (Alpco) or HBeAg (US Biological) by following the manufacturer's recommended protocol after diluting samples to match the linear range of their respective assays. Irrespective of readout, compound concentrations that reduce viral product accumulation in the cell lysates or supernatants by 50% relative to no drug controls (EC50) are reported; EC50 ranges are as follows: A<0.1 μM; B 0.1-1 μM; C>1 μM.

With `CC(C)(C)[C@@H]1Oc2c(cc(Cl)c3occc23)-c2c1cc(C(=O)O)c(=O)n2C1CC1` [Example 2, (S)-5-(tert-butyl)-11-chloro-9-cyclopropyl-8-oxo-8,9-dihydro-5H-furo[2′,3′:7,8]chromeno[4,3-b]pyridine-7-carboxylic acid], the CC50 (commonly the concentration at which the toxic effect on the cells reaches its halfway point) at 3 days in series [1] was > 25 µM. Further, the EC50 – broadly, the midpoint of the concentration-response curve – in the series on hepatitis B virus (HBV) was < 0.1 µM.
As to `CC(C)(C)[C@@H]1Oc2c(cc(Br)c3occc23)-c2c1cc(C(=O)O)c(=O)n2C1CC1` [Example 1, (S)-11-bromo-5-(tert-butyl)-9-cyclopropyl-8-oxo-8,9-dihydro-5H-furo[2′,3′:7,8]chromeno[4,3-b]pyridine-7-carboxylic acid], the CC50 at 3 days in series [1] is > 25 µM. Further, the EC50 in the series with hepatitis B virus (HBV) was < 0.1 µM.
For `CC(C)(C)[C@@H]1Oc2c(cc(O)c3occc23)-c2c1cc(C(=O)O)c(=O)n2C1CC1` [Example 5, (S)-5-(tert-butyl)-9-cyclopropyl-11-hydroxy-8-oxo-8,9-dihydro-5H-furo[2′,3′:7,8]chromeno[4,3-b]pyridine-7-carboxylic acid], the CC50 at 3 days in series [1] was > 25 µM. Also, the EC50 with hepatitis B virus (HBV) was < 0.1 µM.
Take `COc1cc2c(c3ccoc13)O[C@@H](C(C)(C)C)c1cc(C(=O)O)c(=O)n(C3CC3)c1-2` [Example 6, (S)-5-(tert-butyl)-9-cyclopropyl-11-methoxy-8-oxo-8,9-dihydro-5H-furo[2′,3′:7,8]chromeno[4,3-b]pyridine-7-carboxylic acid]: the cytotoxic concentration (CC50) at 3 days in series [1] is > 25 µM. For the same molecule, the EC50 in the series on hepatitis B virus (HBV) is < 0.1 µM.
`CC(C)(C)[C@@H]1Oc2c(cc(Cl)c3ccoc23)-c2c1cc(C(=O)O)c(=O)n2C1CC1` [Example 3, (S)-5-(tert-butyl)-11-chloro-9-cyclopropyl-8-oxo-8,9-dihydro-5H-furo[3′,2′:7,8]chromeno[4,3-b]pyridine-7-carboxylic acid]: in series [1], the CC50 at 3 days is > 25 µM. Moreover, the EC50 in the series on hepatitis B virus (HBV) is < 0.1 µM.
Take `CC(C)(C)[C@@H]1Oc2c(ccc3occc23)-c2c1cc(C(=O)O)c(=O)n2C1CC1` [Example 4, (S)-5-(tert-butyl)-9-cyclopropyl-8-oxo-8,9-dihydro-5H-furo[2′,3′:7,8]chromeno[4,3-b]pyridine-7-carboxylic acid]: in series [1], the CC50 at 3 days is > 25 µM. Besides, the EC50 in the series with hepatitis B virus (HBV) is < 0.1 µM.

(Values after patent US11236108B2, “Functionalized heterocycles as antiviral agents” (ENANTA PHARMACEUTICALS, INC., priority 2019, dated 2022).)
